Results taken from patent US9724329B2, “Stimulating immune response” (Peter MacCallum Cancer Institute, priority 2010, dated 2017).
“Also recorded” adds a separate entry of the source.

Experiments:
[1] = system: K562 cells (natural killer (NK) only sensitive cell line); assay: NK-cell cytotoxicity: drug-treated PBMC as effectors in chromium release assay; format: cell-based, human; conditions: for NK cell function / cytotoxicity (K562 lysis): 10 uM, PBMC cultured 3 days, versus untreated
Protocol: (§1) FIG. 10. […] (b) The anti-inflammatory potential of NMP was assessed using LPS-treated CD14+ monocytes that were isolated from healthy donor PBMC. Monocytes were treated with 10 uM NMP or lenalidomide (LEN) and 1 ug/mL LPS for 18 hr or left untreated (Unt), then supernatants were analyzed via cytokine bead array for TNFα and IL-6. (c) The polarizing effect of NMP on cytokine production from PBMC was assessed from supernatants collected after 3d drug treatment. Levels of IL-2, IL-4 and IL-10 were analyzed by cytokine bead array. (d) NK-cell cytotoxicity was assessed by culturing healthy donor PBMC in the presence of 10 uM NMP, 10 uM lenalidomide, or as media alone (Unt). Cells harvested after 3d were washed and used as effectors in chromium release assays against the NK-only sensitive cell line, K562 at an effector ratio of 50:1. […] Data are presented as mean+/−SEM. NS, not statistically significant. (p≧0.05), *p<0.05
Healthy donor peripheral blood mononuclear cells (PBMC) were cultured for 3 days in RPMI-1640 and 10% FCS in the presence of 10 uM NMP, 10 uM Len (positive control) or no drugs. After 3 days the cells were harvested and used as effectors in a standard 4 hr chromium release assay, using K562 as targets (natural killer (NK) only sensitive cell line) (n=3).
BEZ235 and lenalidomide were dissolved in dimethylsulfoxide (DMSO) as 10 mM stock solutions and further diluted in media to final concentrations as specified in figure legends. The final concentration of DMSO was not greater than 0.1% v/v in any assay.

transplanted Vk*MYC MM = assay: Transplanted Vk*MYC myeloma model in mice: survival, paraproteinaemia (M-spike), serum immunoglobulin; format: in vivo, mouse; conditions: for efficacy against Vk*MYC MM in vivo (progression): FIG. 8d, lenalidomide 100 mg/kg, NMP, saline control
Protocol: Sublethally (6Gy) irradiated C57BL/6 mice were injected with 1×10e5 Vk*myc splenocytes derived from myelomatous mice by intravenous injection. Recipient mice were monitored by serum protein electophoresis for development of monoclonal paraproteinaemia (M-spike). The monoclonal paraprotein is a sensitive and specific marker of myeloma burden, as this protein is only produced by myeloma cells. Paraprotein estimation is a standard clinical parameter by which myeloma is monitored in human patients. Once detected, M-spikes were quantitated by densitometry (expressed as % of total serum protein). […] Mice were monitored by weekly M-spike quantification and for clinically apparent disease. Mice developing distress due to disease progression (e.g. hind limb paralysis, splenic rupture) were euthanased.
All mouse experiments were carried out in accordance with ethical guidelines determined by the Peter Mac Animal Experimental Ethics Committee. For in vivo assessment of NMP efficacy, treatment studies were performed on mice bearing transplanted Vk*MYC myeloma^2. […] To exclude the potential for adoptive transfer of immune cells with grafts into Rag2^−/−cγ^−/− mice and matched C57BL/6 recipients (FIG. 8f), freshly sorted Vk*MYC MM cells (40,000 per mouse) were used for this experiment. The onset of transplanted disease was confirmed by serum protein electrophoresis; those mice manifesting M-protein >2% of total serum protein (FIG. 8a) or >5% (remaining figures) were selected for treatment.
All dosing was performed by oral gavage using freshly prepared drug solutions or suspensions. Mice were dosed with NMP according to standard practice for drug administration using NMP/PEG as a vehicle^1. NMP (Sigma Aldrich, NSW, AUS) was diluted 1 in 10 v/v (FIG. 8a) or 1 in 5 v/v (remaining figures) in PEG300 (Sigma Aldrich, NSW, AUS) and administered by oral gavage to a final volume of 1 uL NMP per gram mouse weight.
BEZ235 was kindly provided by Novartis. According to Novartis' recommendations, BEZ235 was dissolved in NMP by heating briefly to 60° C. and further diluting 1 in 10 v/v in PEG300. Alternatively BEZ235 was suspended in 0.5% methylcellulose (MC) solution and mixed thoroughly prior to administration.
Lenalidomide was kindly provided by Celgene. Lenalidomide was suspended in 0.9% saline solution immediately prior to oral gavage at a dose of 100 mg/kg.
Treatment was continued daily for the first month, then weekdays only for the remainder of the indicated treatment period. Mice were culled with the development of features of overt myeloma, including permanent hind-limb paralysis and disseminated extramedullary disease.
Freshly obtained mouse serum was analyzed for paraproteinemia on the Sebia Hydrasys® semi-automated agarose gel electrophoresis system (Sebia, Norcross, Ga., USA). Serum M-spike densitometry quantification was performed using Phoresis software (release 4.7.2, Sebia) by a biochemist blinded to the nature of group allocation. M-spike results are expressed as a percentage of total serum protein.
For correlative quantitative immunoglobulin estimates, thawed aliquots of serum were batched for sandwich enzyme-linked immunosorbent assay (ELISA) using Igλ or IgK capture antibodies (Southern Biotech, AL, USA) and biotin/streptavidin detection by horseradish peroxidase/tetramethylbenzidine dihydrochloride substrate standardized against IgMK/IgMl isotype controls (Biolegend, CA, USA). ELISA plates were read using a VersaMax™ microplate reader and analyzed by SoftMax Pro software v 5.4 (Molecular Devices, CA, USA).

CD14+ monocytes = assay: Inflammatory cytokine secretion by LPS-treated CD14+ monocytes; format: cell-based, human; conditions: 10 uM; for IL-6 secretion / TNFα secretion: FIG. 10b, 1 ug/mL LPS, 18 hr
Protocol: as §1
CD14+ monocytes were sorted via the Dynal bead kit from PBMC. The cells were then treated with LPS to induce cytokine production, and cultured overnight in the presence of 10 uM NMP, 10 uM Len or no drugs. As background controls, non LPS stimulated monocytes were used. The supernatants were harvested and IL-1beta, GM-CSF, IL-6 and TNF-alpha analyzed via the Luminex beady array assay (n=3).
(§2) Supernatants from cultured cells or serum from VK*MYC mice were used to assess the level of individual cytokines (as specified in the methods and results section) via the Luminex cytokine bead array system. The assay was conducted according to the manufacturer instructions. Briefly, pre-mixed beads were added to 25 uL of undiluted supernatant/serum, followed by the addition of detection antibodies and streptavidin in 96 well filtered-membrane plates. The plates were run on the Luminex 200 instrument and data analysed with the xPONENT software.

[2] = system: peripheral blood mononuclear cells (PBMC); assay: Cytokine production of PBMC (cytokine bead array); format: cell-based, human; conditions: for cytokine secretion profile (Th): FIG. 10c, 3d drug treatment
Protocol: PBMC were cultured for 3 days in RPMI-1640 and 10% FCS in the presence of 10 uM NMP, 10 uM Len or no drugs. After 3 days, supernatants were collected and a cytokine bead array performed via the Luminex instrument to analyze changes in IL-2, IL-4 and IL-10 production (n=3).
as §2

[3] = system: LPS induced inflammation and shock; assay: LPS challenge, serum cytokines in non-tumor bearing mice; format: in vivo, mouse; conditions: FIG. 8c; serum 4 hours after LPS; NMP 1 uL/g po, lenalidomide 2 x 100 mg/kg po
Protocol: as §2
For LPS challenges, non-tumor bearing C57BL/6 mice were administered LPS (E. Coli 0127:B8, gamma-irradiated; Sigma) 1 mg/30 g mouse weight by intraperitoneal injection. NMP (1 uL/g mouse weight in PEG, po) was administered 4 hours prior to LPS. Lenalidomide was administered in 2 doses of 100 mg/kg po 24 and 4 hours prior to LPS. Serum was obtained 4 hours after LPS challenge and analyzed for cytokine content by bead array.

PBMC [4] = assay: Immune cell subset composition of cultured PBMC; format: cell-based, human; conditions: 10 uM, 3 days
Protocol: PBMC were cultured in RPMI-1640 and 10% FCS for 3 days in the presence of either 10 uM NMP, 10 uM Len or no drugs. At day 3 the cells were harvested and stained for T cell markers (CD4 and CD8), NK markers (CD3−, CD56) and regulatory T cells (CD3, CD4, CD25, CD127low). For controls, day 0 PBMC were stained to assess changes in cellular subsets after 3 days (n=3).

U266 cells = assay: Expression of NKG2D and DNAM-1 ligands on myeloma cells (flow cytometry); format: cell-based, human; conditions: 10 uM, 48 hrs; FIG. 10f
[5] = system: PI3K/mTOR phosphorylation targets; assay: PI3K/mTOR phosphorylation targets in vivo; conditions: in vivo (not shown)
[6] = rats, in the diet; cited from earlier work
PBMC [7] = assay: Direct cytotoxicity, Annexin V and 7aad flow cytometry, PBMC; format: cell-based, human; conditions: NMP 0 uM, 1 uM, 10 uM, 100 uM or 10 mM, 48 hours
Protocol: (§3) PBMC and a myeloma cell line (U266) were cultured in RPMI-1640 with 10% FCS in the presence of NMP (0 uM, 1 uM, 10 uM, 100 uM or 10 mM) for 48 hours. The cells were stained with viability markers (Annexin V and 7aad) and analyzed on the flow cytometer (n=2).

[8] = rats, long-term exposure via inhalation or diet; cited from earlier work
Vk*MYC MM bearing mice = assay: Serum cytokines in MM bearing mice; format: in vivo, mouse; conditions: FIG. 8e; one week of treatment, versus SAL
Protocol: as §2
For cytokine assessment in MM bearing mice, mice were treated daily for 7d with NMP or SAL, and serum collected 4 hours after the last dose.

[9] = in vivo; cited from earlier work
myeloma cell line (U266) = assay: Direct cytotoxicity, Annexin V and 7aad flow cytometry, U266; format: cell-based, human; conditions: NMP 0 uM, 1 uM, 10 uM, 100 uM or 10 mM, 48 hours
Protocol: as §3

[10] = bacterial and mammalian tests; cited from earlier work

## Cn1c(=O)n(-c2ccc(C(C)(C)C#N)cc2)c2c3cc(-c4cnc5ccccc5c4)ccc3ncc21 [BEZ235, reference compound]
[1]; BEZ235 250 nM with NMP, FIG. 10e
  effect of co-treatment on NMP-induced NK-cell lysis: inhibited; also recorded: downregulated
Transplanted Vk*MYC MM; FIG. 8a, BEZ235 25 mg/kg/d concurrent with NMP/PEG, n=6
  median survival: 42.5 days
Transplanted Vk*MYC MM; FIG. 8a, BEZ235 in MC vehicle
  effect on disease progression: minimal effect
Transplanted Vk*MYC MM; FIG. 8a, BEZ235 in MC vehicle, n=8
  median survival: 47.5 days
Transplanted Vk*MYC MM; FIG. 8a, BEZ235 with NMP/PEG
  effect of concurrent administration on the therapeutic effect of NMP: antagonized

## Nc1cccc2c1CN(C1CCC(=O)NC1=O)C2=O (stereo not shown) [Lenalidomide, reference compound]
CD14+ monocytes
  IL-6 secretion: suppressed
  TNFα secretion: suppressed
[2]; 10 uM, 3 days
  IL-2 production: without altering
[2]
  cytokine secretion profile (Th): away from a Th-2 profile
[3]
  IL-6 production following LPS challenge: only NMP suppressed
  TNFα serum levels following LPS challenge: suppressed
PBMC [4]
  proportions of immune cell subtypes (CD4, CD8, NK, regulatory T cells): without altering
[1]
  NK cell function / cytotoxicity (K562 lysis): enhanced
U266 cells
  expression of NKG2D and DNAM-1 ligands (MIC-B, ULBP-1, ULBP-2 and CD155): a property not shared
[5]
  effect on PI3K/mTOR phosphorylation targets: did not detect any consistent effect
Transplanted Vk*MYC MM
  efficacy against Vk*MYC MM in vivo (progression): poor efficacy
Transplanted Vk*MYC MM; listed as lenalidomide
  efficacy against Vk*MYC MM in vivo (progression): minimal effects

## CN1CCCC1=O [NMP, N-methylpyrrolidone]
[6]
  no-effect level (for a decrease in pup body weight): 160 mg/kg/day
CD14+ monocytes; Example 6, FIG. 7, overnight, relative to LPS only control
  secretion of the four inflammatory cytokines (IL-1beta, GM-CSF, IL-6, TNF-alpha): not shown to demonstrate a statistically significant effect
CD14+ monocytes
  IL-6 secretion: Statistically significant inhibition; also recorded: suppressed
  TNFα secretion: Statistically significant inhibition; also recorded: suppressed
PBMC [7]
  direct cytotoxicity (AnnV+7aad+): did not increase to any significant extent; also recorded: not cytotoxic
[2]; 10 uM, 3 days
  IL4 production: inhibit
  IL10 production: inhibit
[2]
  cytokine secretion profile (Th): away from a Th-2 profile
[8]
  carcinogenic effects: no carcinogenic effects
[3]
  IL-6 production following LPS challenge: suppressed
  TNFα serum levels following LPS challenge: suppressed
PBMC [4]
  proportions of immune cell subtypes (CD4, CD8, NK, regulatory T cells): no significant alteration; also recorded: without altering
[1]
  NK cell function / cytotoxicity (K562 lysis): enhancement; also recorded: enhanced
U266 cells
  expression of NKG2D and DNAM-1 ligands (MIC-B, ULBP-1, ULBP-2 and CD155): upregulated
[5]
  effect on PI3K/mTOR phosphorylation targets: did not detect any consistent effect
Vk*MYC MM bearing mice
  serum IL-6: reductions
  serum TNFα: reductions
Transplanted Vk*MYC MM; Example 1, FIG. 1, C57BL/6, NMP/PEG 1:10 v/v, 10 uL per gram, daily oral, 60 days, control 46 days
  median survival: 60 days
Transplanted Vk*MYC MM; FIG. 8b
  residual polyclonal Ig Lambda (L): better maintained; also recorded: less suppressed
Transplanted Vk*MYC MM; FIG. 8b, NMP/PEG versus PEG alone or PBS
  clonally secreted Ig Kappa (K): Suppression
Transplanted Vk*MYC MM; FIG. 8f, immunodeficient mice lacking T, B or NK cells
  NMP response in Rag2−/−cγ−/− knockout mice: No response
Transplanted Vk*MYC MM; FIG. 8f, same Vk*MYC clone
  NMP response in wild type C57BL/6 mice: only observed in wild type C57BL/6
Transplanted Vk*MYC MM
  efficacy against Vk*MYC MM in vivo (progression): regressed
[9]
  oral LD50: 3600 to 7700 mg/kg
Myeloma cell line (U266)
  direct cytotoxicity (AnnV+7aad+): did not increase to any significant extent; also recorded: not cytotoxic
[10]
  genotoxicity: no genotoxicity
